# Assay results: patent publication US5998430A, “Use of trospium chloride and 2-component system for the same” (Dr. R. Pfleger Chemische Fabrik GmbH, priority 1996, dated 1999)
# Legend:
# [1] = plasma concentrations of trospium chloride after intravesicular instillation; type: in vivo; details: intravesicular instillation of 7.5 mg trospium chloride/20 ml; period of 12 hours; sensitive, validated measuring method
# Description: It is particularly advantageous to prepare said aqueous solution with a pH-value≥4.5 immediately prior to administration, in order to prevent any decomposition of the active agent trospium chloride. In particular, the pH-value of the inventive formulation is 5.0 to 7.5, so that it falls entirely within the pH-value range of the normal urine of healthy humans. […] This was confirmed by measuring plasma concentrations of trospium chloride after intravesicular instillation of 7.5 mg trospium chloride/20 ml for a period of 12 hours.
# bladder tissue [2] = test: study on beagles concerning local compatibility following once daily intravesical instillation over 4 weeks; type: in vivo; details: selected formulation
# [3] = tested on: smooth muscle cells of the detrusor; test: internal investigations: direct (musculotropic) action on smooth muscle cells of the detrusor; type: cell-based
# Source text: It will be appreciated that the active agent trospium chloride acts as an anticholinergic, i.e. it occupies receptors of the parasympathetic nervous system, without causing the effects induced by the natural neurotransmitter acetyl choline (neurotropic action). The anticholinergic power of trospium chloride in vitro is 20 times greater than that of oxybutynin (Eckert R. E., Wilhelm A., Schwantes U., Utz J. Alloussi S., Trautwein W. & Ziegler M., Modulation of the cytoplasmic Ca^2+ concentration of isolated myocytes of the detrusor vesicae by anticholinergics, Akt. Urol. 26, 46, 1995). […] These musculotropic characteristics are particularly important in the case of direct administration to the bladder.
# [4] = stability of the aqueous solution during storage and transportation; type: physicochemical
# Description: Accordingly, the invention provides for an aqueous trospium chloride solution prepared from two components, as described above. For the aqueous solution to remain stable for a long time during storage and transportation, the pH-value should be lower than 4.5. However, such a solution has never been considered suitable for administration to the bladder and is also unacceptable for physiological reasons. Therefore the invention assumes that the aqueous solution is prepared prior to administration with a pH-value equal to or greater than 4.5, in order to exclude from the outset ageing, storage and transportation problems.
# [5] = tested on: isolated myocytes of the detrusor vesicae; details: greater than that of oxybutynin; cited from earlier work
# [6] = oral and rectal administration forms; cited from earlier work
# bladder tissue [7] = details: rabbits; intravesical instillation of crushed tablets; cited from earlier work
# [8] = compared with administration of equivalent oral dosages; cited from earlier work
Structure (SMILES),plasma concentrations [1],local compatibility (local adverse effects to the bladder tissue) (bladder tissue [2]),direct action on smooth muscle cells of the detrusor (basal Ca^2+ flow) [3],pH-value for the aqueous solution to remain stable for a long time [4],"anticholinergic power in vitro, relative to oxybutynin [5] [times]",absorption from the intestinal lumen into the system [6],inflammatory processes in the region of the bladder tissue (histological evaluation) (bladder tissue [7]),absorption following intravesicular instillation [8]
O=C(O[C@H]1C[C@H]2CC[C@@H](C1)[N+]21CCCC1)C(O)(c1ccccc1)c1ccccc1 [trospium chloride],At no time plasma concentrations were detected that were above the detection limit,did not lead to local adverse effects to the bladder tissue,inhibition of the basal Ca^2+ flow,lower than 4.5,20,poor absorption,,
CCN(CC)CC#CCOC(=O)C(O)(c1ccccc1)C1CCCCC1 (centres unmarked) [oxybutynin],,,,,,,Inflammatory processes were detected,absorbed to a greater extent
